The test system of this assay is M. tuberculosis H37Rv growth inhibition. Kind of assay: M. tuberculosis H37Rv growth inhibitors, H37Rv strain (AID 1626). Particulars: for IC90: measured here: IC90 against H37Rv; for CC50: measured here: Vero cell cytotoxicity.

Each structure is given as a SMILES string.

With `COc1ccc(NC(=O)CSCc2ccc(C)cc2)cc1`, the IC50 was 26.5 µM and the IC90 is above 100 µM.
As for `CCOC(=O)COc1ccc2ccccc2c1/C=C/[N+](=O)[O-]`, the IC50 was 3.01 µM, the IC90 is 3.47 µM and the CC50 came out at 39.2 µM.
On to `Cc1ccc(-c2c[n+](CC(=O)Nc3nc(-c4ccccc4)cs3)c3n2CCC3)cc1`, for which the IC50 was 7.81 µM and the IC90 amounted to 16.1 µM.
For `Cc1ccc(NC(=O)NCC2CCN(Cc3cccc(Cl)c3)CC2)cc1Cl`, the IC50 is 11.6 µM, the IC90 was determined as 31.2 µM and the CC50 was 29.4 µM.
The matching figures for `CC(=O)/C=C/c1ccc2ccccc2n1`: 5.65 µM, 6.34 µM and 16.1 µM.
The matching figures for `COc1ccc(N)c2c1C(=O)c1ccccc1C2=O`: 17.5 µM, above 100 µM and above 40 µM.
The matching figures for `N=C1SCC(=O)N1c1ncc(Cc2ccccc2Cl)s1`: below 0.391 µM, 15.9 µM and above 40 µM.
Turning to `Cc1ccc(NC2=CC(=O)C(=O)c3ccccc32)cc1`, the IC50 was 1.49 µM, the IC90 was 1.94 µM and the CC50 was found to be 6.94 µM.
The matching figures for `CCOc1ccc2nc(/N=C/c3c(C)[nH]n(-c4ccc(C)cc4)c3=O)sc2c1`: 9.04 µM, above 100 µM and above 40 µM.
The matching figures for `COc1ccc(OC)c(C2C3=C(N=c4s/c(=C\c5cccc(O)c5)c(=O)n42)c2ccccc2CC3)c1` (configuration not stated): 11.1 µM, above 100 µM and 19.9 µM.
`CCOc1ccc(N=Cc2c(O)n(-c3cc(C)cc(C)c3)c(=O)[nH]c2=O)cc1`: the IC50 is below 0.195 µM and the IC90 was above 100 µM.
On to `CN(C)c1ccc(O)c2c1CC1CC3C(N(C)C)C(=O)C(C(N)=O)=C(O)[C@@]3(O)C(=O)C1=C2O` (some centres not stated), for which the IC50 was 3.33 µM, the 90% effect concentration (IC90) was determined as 7.59 µM and the CC50 was above 40 µM.
Take `Cc1ccc(C(=O)/C=C/c2ccc(-c3ccc(C)cc3)o2)cc1`: the CC50 was determined as 21.9 µM.
Take `COCC(=O)Nc1ccc(Br)c(C)c1`: the IC90 was above 100 µM.
In turn, `Cc1ccc(SC/C(O)=C(\C#N)c2nc3ccccc3n2C)cc1` came in with a CC50 above 40 µM.
Consider `CC1CC(C)(C)Nc2ccc(OC(=O)c3ccco3)cc21` (configuration not stated), for which the IC50 is 15.9 µM, the IC90 stood at 22.2 µM and the CC50 is above 40 µM.
In the case of `O/N=C/c1ccc(-c2cc(Cl)ccc2Cl)o1`, the IC90 was above 100 µM.
With `O=C(NCCCN1CCOCC1)c1ccc([N+](=O)[O-])cc1[N+](=O)[O-]`, the IC50 is 6.25 µM and the IC90 is above 100 µM.
For `Cc1nc(N2CCOCC2)c2c(C)c(C(=O)Nc3ccc(C(F)(F)F)cc3)sc2n1`, the CC50 is above 40 µM.
Take `O=[N+]([O-])c1cccn2cc(-c3ccc(Br)cc3)nc12`: the IC50 was 18.8 µM, the IC90 is above 100 µM and the CC50 stood at 27.1 µM.
The matching figures for `O=C(CNC(=O)/C(=C\c1ccc(Br)cc1)NC(=O)c1ccccc1)OCc1ccccc1`: 1.92 µM, 3.33 µM and 13 µM.
The matching figures for `CCCNC(=O)c1nnsc1S(=O)c1ccc(Cl)cc1` (configuration not stated): 8.74 µM, 10.5 µM and 8.53 µM.
For the compound `Cc1ccc2c(c1)c1c(n2CC(O)CNC2CCCCC2)CCCC1` (configuration not stated), the IC50 is 6.83 µM, the IC90 turned out to be 10.2 µM and the CC50 is 15.1 µM.
For `Cn1c(NCc2ccco2)nc2c1c(=O)n(Cc1ccc(Br)cc1)c(=O)n2C` the same measures were 99.3 µM, above 100 µM and above 40 µM.
In turn, `COc1ccc(N=C2C(=O)N3c4c(cccc42)C(C)=CC3(C)C)cc1` came in with an IC90 above 100 µM.
For `Nc1nc(CCl)nc(Nc2ccccc2)n1`, the IC50 was 31.2 µM, the IC90 is above 100 µM and the CC50 turned out to be 3.32 µM.
`CCC(=O)Nc1ccc2ccccc2c1`: the IC50 is 46.5 µM and the IC90 is above 100 µM.
Consider `COc1ccc2c(c1)CCc1c-2nc2ccccc2c1N1CCOCC1`, for which the IC50 is 11.5 µM, the IC90 was determined as 18.6 µM and the CC50 is above 40 µM.
In the case of `CN(c1ccccc1)c1nc(N2CCCC2)nc(-n2ccnc2)n1`, the half-maximal inhibitory concentration (IC50) was 3.05 µM, the IC90 came out at 3.54 µM and the CC50 was above 40 µM.
The matching figures for `Cc1coc2c1C(=O)C(=O)c1c-2ccc2c(C)cccc12`: 0.336 µM, 0.366 µM and 27.8 µM.
As to `Nc1[nH]ncc1-c1ccc(Cl)cc1`, the IC50 was 21.6 µM and the IC90 was above 100 µM.
For `O=C(NC1CCCCC1)C(c1ccc2ncccc2c1)N(Cc1ccccc1)C(=O)c1ccc2c(c1)OCCO2` (configuration not stated) the same measures were 19 µM and 28.2 µM.
As for `Cc1cccc(OCC(O)Cn2c(=N)n(CCN3CCCCC3)c3ccccc32)c1` (configuration not stated), the IC50 is 5.87 µM, the IC90 amounted to 6.69 µM and the CC50 is 35.8 µM.
`Cc1cccc(-c2noc(-c3cc4ccccc4oc3=O)n2)c1`: the IC50 was 1.28 µM and the IC90 was above 100 µM.
As for `COc1ccc(N/C=C/C(=O)c2sc(-c3ccccc3)nc2C)cc1`, the IC50 was 69.2 µM, the IC90 was above 100 µM and the CC50 is above 40 µM.
As to `COC(=O)c1cccc(OC(N)=O)c1`, the IC50 was 72.9 µM and the IC90 was above 100 µM.
With `Cc1[nH]n2c(=O)cc(C(C)(C)C)nc2c1-c1ccccc1`, the IC50 is 0.407 µM, the IC90 was determined as 2.91 µM and the CC50 was 13.1 µM.
On to `Cc1cc(C)n(-c2nc(NC(C)C)nc(NC(C)C)n2)n1`, for which the IC50 was 0.961 µM, the IC90 was determined as 3.94 µM and the CC50 was above 40 µM.
For `Cc1ccc(C)c(/C=C/C(=O)c2ccccc(=O)c2O)c1`, the CC50 was 4.93 µM.
As to `c1ccc(OCCOCCN2CCN(C(c3ccccc3)c3ccccc3)CC2)cc1`, the IC50 was 11.7 µM, the IC90 turned out to be 13.5 µM and the CC50 is above 40 µM.
Take `N#Cc1nc(-c2cccs2)oc1NCCc1ccccc1`: the IC50 is 1.97 µM and the IC90 came out at 5.43 µM.
For `O=C(CSc1nc2ccccc2o1)NCC(=O)c1ccccc1` the same measures were 8.36 µM and 25.9 µM.
For the compound `O=C(Nc1nc2ccc(F)cc2s1)c1ccccn1`, the IC50 is below 0.195 µM, the IC90 came out at 0.248 µM and the CC50 was found to be 3.01 µM.
The matching figures for `CCCCCCCOc1ccc(OC(=O)c2cccnc2)cc1`: 6.32 µM, above 100 µM and 15.4 µM.
Regarding `O=C(/C=C/c1ccco1)c1ccc(NC(=O)C23CC4CC(CC(C4)C2)C3)cc1`, the IC50 is below 0.195 µM and the IC90 was above 100 µM.
For `CCCCOC(=O)c1ccc(NC(=O)C2CCCO2)cc1` (configuration not stated) the same measures were 14.2 µM and above 100 µM.
Consider `Cc1ccccc1-c1nc2cc(N)ccc2o1`, for which the IC50 is 15.3 µM and the IC90 is above 100 µM.
Turning to `O=C(Nc1cc(Cl)cc(Cl)c1)N1CCCC1`, the IC50 was 12.2 µM, the IC90 amounted to 17.6 µM and the CC50 was above 40 µM.
Regarding `Cc1cnc(C(=O)Nc2nnc(SCc3c(Cl)cccc3Cl)s2)cn1`, the IC50 was 8.19 µM, the IC90 was above 100 µM and the CC50 amounted to 35.5 µM.
For `Brc1c(CSc2nncc3ccccc23)nc2ccccn12` the same measures were 5.58 µM, 16.3 µM and above 40 µM.
The matching figures for `COc1cc(CNC(C)c2ccccc2)cc(Cl)c1OCC(=O)Nc1ccccc1` (configuration not stated): 3.1 µM, 3.39 µM and above 40 µM.
The matching figures for `O=C(c1cc2nc(-c3ccccc3)cc(-c3ccccc3)n2n1)N1CCN(C(=O)c2ccco2)CC1`: 5.92 µM, 17.6 µM and above 40 µM.
Take `CCOc1ccc(N/C(C)=C/C(=O)c2ccc(C)o2)cc1`: the IC50 was 13.3 µM and the IC90 was above 100 µM.
Take `CCOc1ccc(NC(=O)N(C2CCCCC2)C2CCN(C(C)=O)CC2)cc1`: the IC90 was above 100 µM.
As to `O=C(Nc1nnc(SCc2ccc(F)cc2)s1)c1ccccn1`, the IC50 is 0.342 µM, the IC90 came to 5.05 µM and the CC50 stood at 4.74 µM.
The matching figures for `Cc1[nH]n(-c2nc(-c3ccc(Cl)cc3)cs2)c(=O)c1N=Nc1ccc(O)cc1`: below 0.195 µM, 5.6 µM and 15.8 µM.
For `CCN(Cc1nc2ccccc2c(=O)[nH]1)Cc1nc2ccsc2c(=O)[nH]1` the same measures were 15.8 µM, above 100 µM and above 40 µM.
As to `COC(=O)CCCn1c(C)cc(C(=O)CCl)c1C`, the concentration for half-maximal inhibition (IC50) is 5.45 µM, the IC90 turned out to be 18.4 µM and the CC50 came out at 21.1 µM.
Take `Cc1cc([N+](=O)[O-])ccc1NC(=O)c1ccc(NC(=O)C(C)C)cc1`: the IC50 was 12.3 µM and the IC90 was above 100 µM.
For `Cc1ccc(NC(=O)COC(=O)C2=COCCO2)c([N+](=O)[O-])c1` the same measures were 6.3 µM and above 100 µM.
As to `COC(=O)CN1C(c2cccc(Cl)c2)=Nc2ccc(Cl)cc2C1c1ccccc1` (configuration not stated), the IC50 was 11.9 µM and the IC90 stood at 13.6 µM.
`CCCn1c(NC(=O)C23CC4CC(CC(O)(C4)C2)C3)nc2ccccc21`: the IC50 was 11.1 µM, the IC90 was above 100 µM and the CC50 was above 40 µM.
For `S=c1[nH]c2ccc3ccccc3c2[nH]1` the same measures were 23.7 µM, above 100 µM and above 40 µM.
With `CCOc1ccc(OCC)c(NC(=O)CN2CCN(c3cc(C)ccc3C)CC2)c1`, the IC90 was above 100 µM and the CC50 is above 40 µM.
As for `C=C1C(=O)O[C@@H]2C[C@@H](C)[C@@H]3C=CC(=O)[C@@]3(C)[C@@H](OC(C)=O)[C@H]12`, the IC50 was 2.07 µM, the IC90 came to 3.51 µM and the CC50 stood at 2.02 µM.
`O=C(c1cc2cc3ccc(Cl)cc3nc2o1)N1CCC2(CC1)OCCO2`: the IC50 is 3.56 µM and the IC90 was found to be 7.22 µM.
